In patent US7897765B2, “Therapeutic compounds and uses thereof” (Elixir Pharmaceuticals, Inc., priority 2003, dated 2011):

Biological target: GHS-R (Homo sapiens, UniProt Q92847)
Assay: cell based assay of GHS-R antagonist/agonist activity
Set-up: key: A refers to a compound having antagonist activity with Ki<100 nM in a cell based assay; B refers to a compound having agonist activity with EC50<100 nM in a cell based assay; C refers to a compound having antagonist activity of Ki>100 nM and <1500 nM in a cell based assay; D refers to a compound having antagonist activity with Ki, <100 nM and agonist activity with EC50<100 nM in a cell-based assay; E refers to other exemplary compounds
Conditions: GHS-R antagonist Ki and/or agonist EC50 class
Description: Cell-Based Activity Assays. For example, the ability of the compound to modulate accumulation of a second messenger signaling component downstream of GHS-R can be evaluated. For example, inositol phosphates (IP), as a result of Gq signaling in a mammalian cell, e.g., a Cos-7 cells. Other tissue culture cells, Xenopus oocytes, and primary cells can also be used.
Phosphatidylinositol turnover assay. One day after transfection COS-7 cells are incubated for 24 hours with 5 μCi of [^3H]-myo-inositol in 1 ml medium supplemented with 10% fetal calf serum, 2 mM glutamine and 0.01 mg/ml gentamicin per well. Cells are then washed twice in buffer, 20 mM HEPES, pH 7.4, supplemented with 140 mM NaCl, 5 mM KCl, 1 mM MgSO4, 1 mM CaCl2, mM glucose, 0.05% (w/v) bovine serum; and incubated in 0.5 ml buffer supplemented with 10 mM LiCl at 37° C. for 30 min. For some assays, it is also useful to incubate the cells with adenosine deaminase ADA (200 U/mg, Boehringer Mannheim, Germany) for 30 min in a concentration of 1 U/ml.
After incubation with the compound of interest for 45 min at 37° C., cells are extracted with 10% ice-cold perchloric acid and placed on ice for 30 min. The resulting supernatants are neutralized with KOH in HEPES buffer, and [^3H]-inositol phosphate is purified on Bio-Rad AG 1-X8 anion exchange resin as described. Assays can be run in duplicate, triplicate, etc.
Other second messenger assays. Another second messenger that can be evaluated is Ca^2+. Ca^2+ mobilization can be evaluated using a calcium sensitive detector, such as aequorin protein or a dye, e.g., FURA-2. In an exemplary assay, calcium mobilization is evaluated in a recombinant cell that expresses GHS-R and aequorin.
Gene expression assay. HEK293 cells (30 000 cells/well) seeded in 96-well plates are transiently transfected with a mixture of pFA2-CREB and pFR-Luc reporter plasmid (PathDetect™ CREB trans-Reporting System, Stratagene) and nucleic acid encoding GHS. One day after transfection, cells are treated with the compound of interest in an assay volume of 100 μl medium for 5 hrs. After treatment, cells are cultured in low serum (2.5%). After the incubation period, the assay is ended by washing the cells twice with PBS and adding 100 μl luciferase assay reagent (LucLite™, Packard Bioscience). Luminescence is measured (e.g., as relative light units (RLU)) using in a luminometer such as the TopCounter™ (Packard Bioscience) for 5 sec.
IC50 and EC50 values can be determined by nonlinear regression, e.g., using the Prism 3.0 software (GraphPad Software, San Diego).

Sequence of GHS-R (Q92847 whole entry, species assumed): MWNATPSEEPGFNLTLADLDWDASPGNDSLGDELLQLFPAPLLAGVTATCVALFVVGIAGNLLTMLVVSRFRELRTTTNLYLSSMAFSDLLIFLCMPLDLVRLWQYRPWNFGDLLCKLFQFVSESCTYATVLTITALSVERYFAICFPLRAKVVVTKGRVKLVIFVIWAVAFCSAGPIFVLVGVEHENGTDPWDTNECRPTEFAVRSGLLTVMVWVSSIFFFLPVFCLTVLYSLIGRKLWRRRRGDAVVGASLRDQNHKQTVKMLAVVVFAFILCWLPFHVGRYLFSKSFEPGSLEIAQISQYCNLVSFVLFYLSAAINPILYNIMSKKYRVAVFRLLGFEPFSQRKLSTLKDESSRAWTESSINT

| Compound | Activity |
| --- | --- |
| CC(C)CCN1CC=C(C(=O)N[C@H](COCc2ccccc2)C(=O)N2CCC3(CC2)CN(S(C)(=O)=O)c2ccccc23)CC1 [Compound 102] | E |
| CN1CC=C[C@H]1C(=O)N[C@H](COCc1ccccc1)C(=O)N1CCC2(CC1)CN(S(C)(=O)=O)c1ccccc12 [Compound 11] | A (A refers to a compound having antagonist activity with Ki<100 nM in a cell based assay) |
| CN(C)C[C@H]1CCC[C@@H](CNC(=O)[C@@H](Cc2c[nH]c3ccccc23)NC(=O)N2CCC3(C=Cc4ccccc43)CC2)C1 [Compound 5] | A (A refers to a compound having antagonist activity with Ki<100 nM in a cell based assay) |
| CN(C)C[C@H]1CCC[C@@H](C(=O)N[C@H](COCc2ccccc2)C(=O)N2CCC3(CC2)CN(S(C)(=O)=O)c2ccccc23)C1 [Compound 10] | D (D refers to a compound having antagonist activity with Ki, <100 nM and agonist activity with EC50<100 nM in a cell-based assay) |
| CC(C)(N)C(=O)N[C@H](COCc1ccccc1)C(=O)N1CCC2(CC1)CN(S(C)(=O)=O)c1ccccc12.CS(=O)(=O)O [Compound 125] | B (B refers to a compound having agonist activity with EC50<100 nM in a cell based assay) |
| CN(C)CC(=O)N1CC2(CCN(C(=O)[C@@H](COCc3ccccc3)NC(=O)OC(C)(C)C)CC2)c2ccccc21 [Compound 63] | E |
| CC(=O)OCC(=O)N1CC2(CCN(C(=O)[C@@H](COCc3ccccc3)NC(=O)CN(C)C)CC2)c2ccccc21 [Compound 71] | E |
| CS(=O)(=O)N1CC2(CCN(C(=O)[C@@H](COCc3ccccc3)NC(=O)CN3CCC3)CC2)c2ccccc21 [Compound 39] | C (C refers to a compound having antagonist activity of Ki>100 nM and <1500 nM in a cell based assay) |
| CCN(CCS(=O)(=O)N[C@H](COCc1ccccc1)C(=O)N1CCC2(CC1)CN(S(C)(=O)=O)c1ccccc12)C(C)C [Compound 101] | E |
| CS(=O)(=O)N1CC2(CCN(C(=O)[C@@H](COCc3ccccc3)NS(=O)(=O)CCN3CCCCC3)CC2)c2ccccc21.Cl [Compound 37] | C (C refers to a compound having antagonist activity of Ki>100 nM and <1500 nM in a cell based assay) |
| CN1CCC(C(=O)N[C@@H](Cc2ccccc2)C(=O)N2CCC3(CC2)CN(S(C)(=O)=O)c2ccccc23)CC1 [Compound 42] | C (C refers to a compound having antagonist activity of Ki>100 nM and <1500 nM in a cell based assay) |
| CC(OCc1ccccc1)[C@@H](CC(=O)N1CCC2(CC1)CN(S(C)(=O)=O)c1ccccc12)NC(=O)C1CCN(C)CC1 (stereo partly drawn) [Compound 142] | E |
| CC(C)(C)OC(=O)N[C@H](COCc1ccccc1)C(=O)N1CCC2(CC1)CN(C(=O)CC(=O)O)c1ccccc12 [Compound 62] | E |
| COCCN1CCC(C(=O)N[C@H](COCc2ccccc2)C(=O)N2CCC3(CC2)CN(S(C)(=O)=O)c2ccccc23)CC1 [Compound 33] | C (C refers to a compound having antagonist activity of Ki>100 nM and <1500 nM in a cell based assay) |

Next, values leading:

| Activity | Compound |
| --- | --- |
| E | CS(=O)(=O)N1CC2(CCN(C(=O)C(COCc3ccccc3)NCC3CCNCC3)CC2)c2ccccc21 (stereo not drawn) [Compound 104] |
| E | CC(C)(C)CC(=O)N[C@H](COCc1ccccc1)C(=O)N1CCC2(CC1)CN(S(C)(=O)=O)c1ccccc12 [Compound 52] |
| E | CN1CCC(C(=O)N[C@H](COCc2ccccc2)C(=O)N2CCC3(CC2)CN(S(C)(=O)=O)c2ccccc23)C1 (stereo partly drawn) [Compound 115] |
| E | CN1CCC[C@H]1CC(=O)N[C@H](COCc1ccccc1)C(=O)N1CCC2(CC1)CN(S(C)(=O)=O)c1ccccc12 [Compound 113] |
| E | CS(=O)(=O)N1CC2(CCN(C(=O)[C@@H](COCc3ccccc3)NS(=O)(=O)CCN3CCC3)CC2)c2ccccc21 [Compound 105] |
| E | C[C@@H](C(=O)N[C@H](COCc1ccccc1)C(=O)N1CCC2(CC1)CN(S(C)(=O)=O)c1ccccc12)N(C)C [Compound 81] |
| E | CC(=O)N[C@H](COCc1ccccc1)C(=O)N1CCC2(CC1)CN(S(C)(=O)=O)c1ccccc12 [Compound 51] |
